Numbers after ± are expanded uncertainties.
Legend:
[1] = for speed of sound / mass density / viscosity: 101.33 kPa, Liquid; for speed of sound: VIBRATING TUBE DENSIMETER; for mass density: Vibrating tube method; for surface tension liquid-gas: Ring tensiometer; for viscosity: Capillary tube (Ostwald / Ubbelohde) method
[2] = refractive index (Na D-line) (dimensionless); settings: 101.33 kPa, Liquid, Standard Abbe refractometry

## CCCCn1cc[n+](C)c1.F[P-](F)(F)(F)(F)F [1-butyl-3-methylimidazolium hexafluorophosphate]
[1]; 278.15 K
  speed of sound: 1492.5 ± 5 m/s
  mass density: 1384.36 ± 10 kg/m3
[1]; 283.15 K
  speed of sound: 1480.8 ± 5 m/s
  mass density: 1380.1 ± 10 kg/m3
[1]; 288.15 K
  surface tension liquid-gas: 43.7 ± 1.2 mN/m
  speed of sound: 1468.2 ± 5 m/s
  mass density: 1375.83 ± 10 kg/m3
[1]; 293.15 K
  surface tension liquid-gas: 43.2 ± 1.2 mN/m
  viscosity: 340.49 ± 14 mPa·s
  speed of sound: 1455.3 ± 5 m/s
  mass density: 1371.56 ± 10 kg/m3
[1]; 298.15 K
  surface tension liquid-gas: 42.9 ± 1.2 mN/m
  viscosity: 247.06 ± 9.1 mPa·s
  speed of sound: 1442.8 ± 5 m/s
  mass density: 1367.3 ± 10 kg/m3
[1]; 303.15 K
  surface tension liquid-gas: 42.6 ± 1.2 mN/m
  viscosity: 184.23 ± 6.2 mPa·s
  speed of sound: 1430.6 ± 5 m/s
  mass density: 1363.03 ± 10 kg/m3
[1]; 308.15 K
  surface tension liquid-gas: 42.2 ± 1.2 mN/m
  viscosity: 140.57 ± 4.3 mPa·s
  speed of sound: 1419 ± 5 m/s
  mass density: 1358.76 ± 10 kg/m3
[1]; 313.15 K
  surface tension liquid-gas: 41.8 ± 1.2 mN/m
  viscosity: 108.9 ± 3.1 mPa·s
  speed of sound: 1406.4 ± 5 m/s
  mass density: 1354.53 ± 10 kg/m3
[1]; 318.15 K
  viscosity: 85.9 ± 2.3 mPa·s
  speed of sound: 1394.9 ± 5 m/s
  mass density: 1350.32 ± 9.9 kg/m3
[1]; 323.15 K
  viscosity: 68.79 ± 1.8 mPa·s
  speed of sound: 1383.5 ± 5 m/s
  mass density: 1346.12 ± 9.9 kg/m3
[1]; 328.15 K
  speed of sound: 1372.2 ± 5 m/s
  mass density: 1341.97 ± 9.8 kg/m3
[1]; 333.15 K
  speed of sound: 1360.9 ± 5 m/s
  mass density: 1337.83 ± 9.8 kg/m3
[1]; 338.15 K
  speed of sound: 1349.2 ± 5 m/s
  mass density: 1333.7 ± 9.7 kg/m3
[1]; 343.15 K
  speed of sound: 1337.2 ± 5 m/s
  mass density: 1329.61 ± 9.7 kg/m3
[2]; 283.15 K
  refractive index: 1.41332 ± 0.0011
[2]; 288.15 K
  refractive index: 1.41198 ± 0.0011
[2]; 293.15 K
  refractive index: 1.41069 ± 0.0011
[2]; 298.15 K
  refractive index: 1.40937 ± 0.0011
[2]; 303.15 K
  refractive index: 1.40808 ± 0.0011
[2]; 308.15 K
  refractive index: 1.40674 ± 0.0011
[2]; 313.15 K
  refractive index: 1.40543 ± 0.0011
[2]; 318.15 K
  refractive index: 1.40411 ± 0.0011
[2]; 323.15 K
  refractive index: 1.40282 ± 0.0011
[2]; 328.15 K
  refractive index: 1.40151 ± 0.0011
[2]; 333.15 K
  refractive index: 1.40024 ± 0.0011
[2]; 338.15 K
  refractive index: 1.39896 ± 0.0011
[2]; 343.15 K
  refractive index: 1.39771 ± 0.0011

## CCCCCCn1cc[n+](C)c1.F[P-](F)(F)(F)(F)F [1-hexyl-3-methylimidazolium hexafluorophosphate]
[1]; 278.15 K
  speed of sound: 1490.7 ± 5 m/s
[1]; 283.15 K
  speed of sound: 1470.8 ± 5 m/s
[1]; 288.15 K
  speed of sound: 1453.6 ± 5 m/s
[1]; 293.15 K
  surface tension liquid-gas: 37.5 ± 1.1 mN/m
  viscosity: 676.82 ± 34 mPa·s
  speed of sound: 1438.3 ± 5 m/s
[1]; 298.15 K
  surface tension liquid-gas: 37.1 ± 1.1 mN/m
  viscosity: 475.66 ± 22 mPa·s
  speed of sound: 1424.2 ± 5 m/s
[1]; 303.15 K
  surface tension liquid-gas: 36.8 ± 1.1 mN/m
  viscosity: 342.52 ± 14 mPa·s
  speed of sound: 1411 ± 5 m/s
[1]; 308.15 K
  surface tension liquid-gas: 36.5 ± 1 mN/m
  viscosity: 252.69 ± 9.4 mPa·s
  speed of sound: 1398.5 ± 5 m/s
[1]; 313.15 K
  surface tension liquid-gas: 36.1 ± 1 mN/m
  viscosity: 187.36 ± 6.3 mPa·s
  speed of sound: 1386.4 ± 5 m/s
[1]; 318.15 K
  viscosity: 143.58 ± 4.4 mPa·s
  speed of sound: 1374.6 ± 5 m/s
[1]; 323.15 K
  viscosity: 111.9 ± 3.2 mPa·s
  speed of sound: 1363 ± 5 m/s
[1]; 328.15 K
  speed of sound: 1351.7 ± 5 m/s
[1]; 333.15 K
  speed of sound: 1340.3 ± 5 m/s
[1]; 338.15 K
  speed of sound: 1329.3 ± 5 m/s
[1]; 343.15 K
  speed of sound: 1318.4 ± 5 m/s

## CCCCCCCC[n+]1ccn(C)c1.F[P-](F)(F)(F)(F)F [1-octyl-3-methylimidazolium hexafluorophosphate]
[1]; 278.15 K
  speed of sound: 1481.6 ± 5 m/s
  mass density: 1251.83 ± 8.5 kg/m3
[1]; 283.15 K
  speed of sound: 1460 ± 5 m/s
  mass density: 1247.65 ± 8.5 kg/m3
[1]; 288.15 K
  speed of sound: 1440.8 ± 5 m/s
  mass density: 1243.43 ± 8.4 kg/m3
[1]; 293.15 K
  surface tension liquid-gas: 36.5 ± 1 mN/m
  viscosity: 999.08 ± 56 mPa·s
  speed of sound: 1423.7 ± 5 m/s
  mass density: 1239.57 ± 8.4 kg/m3
[1]; 298.15 K
  surface tension liquid-gas: 36.2 ± 1 mN/m
  viscosity: 690.6 ± 35 mPa·s
  speed of sound: 1407.8 ± 5 m/s
  mass density: 1235.72 ± 8.3 kg/m3
[1]; 303.15 K
  surface tension liquid-gas: 35.9 ± 1 mN/m
  viscosity: 489.02 ± 22 mPa·s
  speed of sound: 1393 ± 5 m/s
  mass density: 1231.88 ± 8.3 kg/m3
[1]; 308.15 K
  surface tension liquid-gas: 35.6 ± 1 mN/m
  viscosity: 355.31 ± 15 mPa·s
  speed of sound: 1378.9 ± 5 m/s
  mass density: 1228.04 ± 8.2 kg/m3
[1]; 313.15 K
  surface tension liquid-gas: 35.2 ± 1 mN/m
  viscosity: 263.23 ± 9.9 mPa·s
  speed of sound: 1365.8 ± 5 m/s
  mass density: 1224.21 ± 8.2 kg/m3
[1]; 318.15 K
  viscosity: 196.23 ± 6.7 mPa·s
  speed of sound: 1353.2 ± 5 m/s
  mass density: 1220.37 ± 8.1 kg/m3
[1]; 323.15 K
  viscosity: 150.57 ± 4.7 mPa·s
  speed of sound: 1341 ± 5 m/s
  mass density: 1216.62 ± 8.1 kg/m3
[1]; 328.15 K
  speed of sound: 1329.1 ± 5 m/s
  mass density: 1212.92 ± 8 kg/m3
[1]; 333.15 K
  speed of sound: 1317.5 ± 5 m/s
  mass density: 1209.21 ± 8 kg/m3
[1]; 338.15 K
  speed of sound: 1305.8 ± 5 m/s
  mass density: 1205.51 ± 7.9 kg/m3
[1]; 343.15 K
  speed of sound: 1294.6 ± 5 m/s
  mass density: 1201.82 ± 7.9 kg/m3
[2]; 283.15 K
  refractive index: 1.42716 ± 0.0011
[2]; 288.15 K
  refractive index: 1.42578 ± 0.0011
[2]; 293.15 K
  refractive index: 1.4244 ± 0.0011
[2]; 298.15 K
  refractive index: 1.42302 ± 0.0011
[2]; 303.15 K
  refractive index: 1.42165 ± 0.0011
[2]; 308.15 K
  refractive index: 1.42028 ± 0.0011
[2]; 313.15 K
  refractive index: 1.41887 ± 0.0011
[2]; 318.15 K
  refractive index: 1.41749 ± 0.0011
[2]; 323.15 K
  refractive index: 1.4161 ± 0.0011
[2]; 328.15 K
  refractive index: 1.41471 ± 0.0011
[2]; 333.15 K
  refractive index: 1.41334 ± 0.0011
[2]; 338.15 K
  refractive index: 1.41195 ± 0.0011
[2]; 343.15 K
  refractive index: 1.41056 ± 0.0011

Reference: the NIST ThermoML archive (doi:10.1016/j.jct.2006.12.005)
